Our source for the MIC values is patent US4291053A, “Agent to be administered orally to domestic animals without cellulose digestion in the rumen” (Hoechst Aktiengesellschaft, priority 1976, dated 1981).

Values after ≈ are worked out from the molar mass of the structure shown. Counter-ions that a name gives are not always drawn.

In one assay the test system is Treponema hyodysenteriae. The experiment in a line: Minimum inhibiting concentration against Treponema hyodysenteriae, agar diffusion test with dilution series. Type of assay: cell-based. The following applies: Brachyspira hyodysenteriae, read-out: Minimum inhibiting concentration (MIC). The method, then: In order to detect the surprising effect on Treponema hyodysenteriae, this microorganism was cultivated according to the method of Harris on a trypticase-soy-agar using an addition of horse blood of 5% in a CO2 /H2 atmosphere, and the minimum inhibiting concentration of Salinomycin was determined in the agar diffusion test, while using the corresponding dilution series, as compared against commercial preparations showing a particularly good effect in dysentery diseases.
(A growth-free zone around the sample is the usual read-out of agar diffusion tests.)
As for `CC[C@H]1OC(=O)C[C@@H](O)[C@H](C)[C@@H](O[C@@H]2O[C@H](C)[C@@H](O[C@H]3C[C@@](C)(O)[C@@H](O)[C@H](C)O3)[C@H](N(C)C)[C@H]2O)[C@@H](CC=O)C[C@@H](C)C(=O)/C=C/C(C)=C/[C@@H]1CO[C@@H]1O[C@H](C)[C@@H](O)[C@@H](OC)[C@H]1OC` [Tylosin], the MIC is more than 100 µg/mL.

Consider `CN(C)[C@@H]1C(=O)C(C(N)=O)=C(O)[C@@]2(O)C(=O)C3=C(O)c4c(O)cccc4[C@@](C)(O)[C@H]3[C@H](O)[C@@H]12` [Oxytetracycline], for which the MIC worked out at 100 µg/mL (≈ 217 µM).

On to `C[n+]1c2cc(N)ccc2cc2ccc(N)cc21.[Cl-]` [3,6-Diamino-10-methyl-acridinium chloride], for which the MIC worked out at 100 µg/mL.

Consider `CN(C)[C@@H]1C(O)=C(C(N)=O)C(=O)[C@@]2(O)C(O)=C3C(=O)c4c(O)cccc4[C@@](C)(O)[C@H]3C[C@@H]12` [Tetracycline-HCl], for which the MIC came out at 50 µg/mL. Same read-out and setting: the value for `CC[C@H]1OC(=O)[C@H](C)[C@@H](O[C@H]2C[C@@](C)(OC)[C@@H](O)[C@H](C)O2)[C@H](C)[C@@H](O[C@@H]2O[C@H](C)C[C@H](N(C)C)[C@H]2O)[C@](C)(O)C[C@@H](C)C(=O)[C@H](C)[C@@H](O)[C@]1(C)O` [Erythromycin] was more than 100 µg/mL.

The assay is the same for the next values; noted with them: Brachyspira hyodysenteriae; trypticase-soy-agar with 5% horse blood, CO2/H2 atmosphere; read-out: Minimum inhibiting concentration (MIC).
As for `CCOc1ccc2nc3cc(N)ccc3c(N)c2c1` [Ethacridine lactate], the MIC worked out at 100 µg/mL. The same measure, in the same setting: the same measure for `Cc1ncc([N+](=O)[O-])n1C` [Dimethridazol]: 5 µg/mL (≈ 35.4 µM); for `CC(C)c1ncc([N+](=O)[O-])n1C` [Ipronidazol]: 2 µg/mL (≈ 11.8 µM).
